The text below walks through data of patent EP2818471A1, “Nitrogen bicyclic compounds as inhibitors for Scyl1 and Grk5” (Max-Planck-Gesellschaft zur Förderung der Wissenschaften …, priority 2013, dated 2014).

The test system of the experiment is beta-TC6 cells. Description: Insulin HTRF assay, relative activity Ar normalized to sunitinib. It counts as cell-based. The conditions noted are these: Mus musculus, normalized to positive control sunitinib (5 µM = 100%), Table 10. The procedure, abridged:
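Relative activity Ar was scaled between 0% and 100% controls, with sunitinib at 5 µM f.c. as reference. Insulin released by beta-TC6 cells was quantified by sandwich HTRF (Eu-cryptate/XL665 antibodies, 120 min RT). Cells had been seeded 24 or 48 h, then treated 2–4 h at 37°C in induction buffer, 0.5% DMSO.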
With `COc1ccc(-c2ccc3ncc(-c4cccc(Cl)c4)n3n2)cc1OC` [compound 124, 3-(3-chlorophenyl)-6-(3,4-dimethoxyphenyl)imidazo[1,2-b]pyridazine], the Emax (in general, the greatest response seen or fitted, relative to the assay's reference) was in the range of 20 to 50%.

Regarding `COc1cccc(CC(=O)Nc2cnc3cnc(-c4ccc(Oc5ccccc5)cc4)cn23)c1` [compound 259, 2-(3-methoxyphenyl)-N-[6-(4-phenoxyphenyl)imidazo[1,2-a]pyrazin-3-yl]acetamide], the Emax was in the range of 10 to 20%.

Molecule `c1cncc(-c2cnc3ccc(-c4cccs4)nn23)c1` [compound 108, 3-(3-pyridyl)-6-(2-thienyl)imidazo[1,2-b]pyridazine] came in with an Emax of 20 to 50%.

Turning to `COc1cc(CNc2ccc3ncc(-c4ccc(N(C)C)cc4)n3n2)cc(OC)c1OC` [compound 49, 3-(4-dimethylaminophenyl)-N-[(3,4,5-trimethoxyphenyl)methyl]imidazo[1,2-b]pyridazin-6-amine], the Emax is 10 to 20%.

`CC(=O)Nc1cccc(-c2cn3c(-c4ccc(F)c(Cl)c4)cnc3cn2)c1` [compound 350, N-[3-[3-(3-chloro-4-fluoro-phenyl)imidazo[1,2-a]pyrazin-6-yl]phenyl]acetamide] had an Emax of 20 to 50%.

For `CN(C)c1cccc(-c2cnc3cnc(-c4ccc(CO)cc4)cn23)c1` [compound 344, [4-[3-[3-(dimethylamino)phenyl]imidazo[1,2-a]pyrazin-6-yl]phenyl]methanol], the Emax was in the range of 20 to 50%.

With `Clc1ccccc1-c1ccc2nnc(-c3cccnc3)n2c1` [compound 184, 6-(2-chlorophenyl)-3-(3-pyridyl)-[1,2,4]triazolo[4,3-a]pyridine], the Emax lay in the range of 50 to 100%.

As to `Cc1ccc(CNc2ccc3ncc(-c4ccc(O)cc4)n3n2)c(C)c1` [compound 52, 4-[6-[(2,4-dimethylphenyl)methylamino]imidazo[1,2-b]pyridazin-3-yl]phenol], the maximum response (Emax) was in the range of 20 to 50%.

Turning to `CN1CCN(C(=O)c2cccc(-c3ccc4nnc(-c5ccc6nccnc6c5)n4c3)c2)CC1` [compound 243, (4-methylpiperazin-1-yl)-[3-(3-quinoxalin-6-yl-[1,2,4]triazolo[4,3-a]pyridin-6-yl)phenyl]methanone], the Emax is 20 to 50%.

The molecule `CC(=O)c1cccc(-c2cn3c(NC(=O)CC4CC4)cnc3cn2)c1` [compound 274, N-[6-(3-acetylphenyl)imidazo[1,2-a]pyrazin-3-yl]-2-cyclopropyl-acetamide] had an Emax of 20 to 50%.

The molecule `FC(F)(F)c1cccc(-c2cnc3ccc(-c4ccncc4)nn23)c1` [compound 134, 6-(4-pyridyl)-3-[3-(trifluoromethyl)phenyl]imidazo[1,2-b]pyridazine] registered an Emax of 20 to 50%.

As to `Cc1cc(-c2cn3c(-c4ccc5ncccc5c4)cnc3cn2)cc(C)c1O` [compound 442, 2,6-dimethyl-4-[3-(6-quinolyl)imidazo[1,2-a]pyrazin-6-yl]phenol], the Emax was in the range of 20 to 50%.

For the molecule `COc1ccc(CNc2ccc3ncc(-c4ccc(O)cc4)n3n2)cc1` [compound 36, 4-[6-[(4-methoxyphenyl)methylamino]imidazo[1,2-b]pyridazin-3-yl]phenol], the Emax lay within 20 to 50%.

On to `NC(=O)c1ccc(-c2ccc3ncc(-c4cccc(OC(F)(F)F)c4)n3n2)cc1` [compound 117, 4-[3-[3-(trifluoromethoxy)phenyl]imidazo[1,2-b]pyridazin-6-yl]benzamide], for which the maximal response (Emax) fell in the range of 20 to 50%.

Molecule `COc1cccc(-c2cn3c(NC(=O)Cc4ccsc4)cnc3cn2)c1` [compound 279, N-[6-(3-methoxyphenyl)imidazo[1,2-a]pyrazin-3-yl]-2-(3-thienyl)acetamide] came in with an Emax of 20 to 50%.

`COc1ccc(-c2ccc3nnc(-c4ccc(O)c(OC)c4)n3c2)cn1` [compound 216, 2-methoxy-4-[6-(6-methoxy-3-pyridyl)-[1,2,4]triazolo[4,3-a]pyridin-3-yl]phenol] showed an Emax of 50 to 100%.

For the molecule `COc1cc(-c2cnc3cnc(-c4ccc(NCCN5CCOCC5)nc4)cn23)ccc1O` [compound 392, 2-methoxy-4-[6-[6-(2-morpholinoethylamino)-3-pyridyl]imidazo[1,2-a]pyrazin-3-yl]phenol], the Emax lay within 20 to 50%.

Regarding `Cc1cc(-c2cnc3cccnn23)cc(C)c1O` [compound 77, 4-imidazo[1,2-b]pyridazin-3-yl-2,6-dimethyl-phenol], the Emax was 10 to 20%.

For `COc1ccccc1-c1ccc2ncc(-c3cccc(OC(F)(F)F)c3)n2n1` [compound 115, 6-(2-methoxyphenyl)-3-[3-(trifluoromethoxy)phenyl]imidazo[1,2-b]pyridazine], the Emax fell in the range of 10 to 20%.

As for `CS(=O)(=O)Nc1ccc(-c2cnc3cccnn23)cc1` [compound 96, N-(4-imidazo[1,2-b]pyridazin-3-ylphenyl)methanesulfonamide], the Emax was in the range of 10 to 20%.

`FC(F)(F)Oc1cccc(-c2nnc3ccc(C#Cc4ccccc4)cn23)c1` [compound 196, 6-(2-phenylethynyl)-3-[3-(trifluoromethoxy)phenyl]-[1,2,4]triazolo[4,3-a]pyridine] registered an Emax of 20 to 50%.

For `COc1cc(-c2ccc3nnc(-c4ccoc4)n3c2)cc(OC)c1OC` [compound 219, 3-(3-furyl)-6-(3,4,5-trimethoxyphenyl)-[1,2,4]triazolo[4,3-a]pyridine], the Emax was in the range of 50 to 100%.

`OCc1ccc(-c2cnc3cnc(-c4ccc(Cl)cc4Cl)cn23)cc1` [compound 374, [4-[6-(2,4-dichlorophenyl)imidazo[1,2-a]pyrazin-3-yl]phenyl]methanol] returned an Emax of 20 to 50%.

In turn, `O=C(NC1CC1)c1ccc(-c2cnc3cccnn23)cc1` [compound 89, N-cyclopropyl-4-imidazo[1,2-b]pyridazin-3-yl-benzamide] registered an Emax of 10 to 20%.

As to `COc1ccc(-c2cnc3cnc(-c4cccs4)cn23)cc1` [compound 362, 3-(4-methoxyphenyl)-6-(2-thienyl)imidazo[1,2-a]pyrazine], the Emax lay within 20 to 50%.

Turning to `Brc1cnc2ccc(NCCCN3CCOCC3)nn12` [compound 44, 3-bromo-N-(3-morpholinopropyl)imidazo[1,2-b]pyridazin-6-amine], the Emax lay within 10 to 20%.

`Cn1cc(-c2cnc3cnc(-c4ccncc4)cn23)cn1` [compound 438, 3-(1-methylpyrazol-4-yl)-6-(4-pyridyl)imidazo[1,2-a]pyrazine] yielded an Emax of 20 to 50%.

`CN(C)c1ccc(-c2cnc3cnc(-c4cccc(NS(C)(=O)=O)c4)cn23)cc1` [compound 295, N-[3-[3-(4-dimethylaminophenyl)imidazo[1,2-a]pyrazin-6-yl]phenyl]methanesulfonamide] gave an Emax of 20 to 50%.

`N#Cc1cccc(-c2nnc3ccc(-c4ccccn4)cn23)c1` [compound 222, 3-[6-(2-pyridyl)-[1,2,4]triazolo[4,3-a]pyridin-3-yl]benzonitrile]: the Emax was in the range of 20 to 50%.

`Cc1ccc(CNc2ccc3ncc(-c4ccc(C(=O)NCCN(C)C)cc4)n3n2)c(C)c1` [compound 54, N-(2-dimethylaminoethyl)-4-[6-[(2,4-dimethylphenyl)methylamino]imidazo[1,2-b]pyridazin-3-yl]benzamide] returned an Emax of 20 to 50%.

`COc1ccc(-c2cn3c(-c4ccc(OC)nc4)cnc3cn2)cn1` [compound 382, 3,6-bis(6-methoxy-3-pyridyl)imidazo[1,2-a]pyrazine] displayed an Emax of 20 to 50%.

For the molecule `Fc1ccc(-c2cn3c(-c4ccsc4)cnc3cn2)cc1Cl` [compound 320, 6-(3-chloro-4-fluoro-phenyl)-3-(3-thienyl)imidazo[1,2-a]pyrazine], the Emax lay within 20 to 50%.

`c1ccc(-c2cnc3cnc(-c4cccs4)cn23)cc1` [compound 298, 3-phenyl-6-(2-thienyl)imidazo[1,2-a]pyrazine] displayed an Emax of 20 to 50%.

The molecule `c1cc(-c2nnc3ccc(-c4ccc(N5CCOCC5)cc4)cn23)ccn1` [compound 176, 4-[4-[3-(4-pyridyl)-[1,2,4]triazolo[4,3-a]pyridin-6-yl]phenyl]morpholine] yielded an Emax of 20 to 50%.

Turning to `CNc1ccc2ncc(-c3ccccc3O)n2n1` [compound 60, 2-[6-(methylamino)imidazo[1,2-b]pyridazin-3-yl]phenol], the maximal response (Emax) is 20 to 50%.

In turn, `c1cc2c(cc1CNc1ccc3ncc(-c4ccc(N5CCOCC5)cc4)n3n1)OCO2` [compound 26, N-(1,3-benzodioxol-5-ylmethyl)-3-(4-morpholinophenyl)imidazo[1,2-b]pyridazin-6-amine] registered an Emax of 20 to 50%.

On to `CN(C)c1ccc(-c2ccc3nnc(-c4cccnc4)n3c2)cc1` [compound 182, N,N-dimethyl-4-[3-(3-pyridyl)-[1,2,4]triazolo[4,3-a]pyridin-6-yl]aniline], for which the Emax lay within 50 to 100%.

`CN(C)c1ccc(-c2cnc3cnc(-c4ccc(O)cc4)cn23)cc1` [compound 284, 4-[3-(4-dimethylaminophenyl)imidazo[1,2-a]pyrazin-6-yl]phenol] registered an Emax of 50 to 100%.

`c1cncc(-c2cnc3cnc(-c4ccc(N5CCOCC5)cc4)cn23)c1` [compound 315, 4-[4-[3-(3-pyridyl)imidazo[1,2-a]pyrazin-6-yl]phenyl]morpholine] showed an Emax of 20 to 50%.

Regarding `COc1ccc(-c2cnc3cnc(-c4ccc(N)nc4)cn23)cc1` [compound 363, 5-[3-(4-methoxyphenyl)imidazo[1,2-a]pyrazin-6-yl]pyridin-2-amine], the Emax is 20 to 50%.

As to `N#Cc1ccc(-c2cnc3cnc(-c4ccccc4)cn23)cc1` [compound 335, 4-(6-phenylimidazo[1,2-a]pyrazin-3-yl)benzonitrile], the Emax was in the range of 20 to 50%.

As to `c1csc(-c2cnc3cnc(-c4cc5ccccc5s4)cn23)c1` [compound 416, 6-(benzothiophen-2-yl)-3-(2-thienyl)imidazo[1,2-a]pyrazine], the Emax was 50 to 100%.

Consider `c1cnc2cc(-c3nnc4ccc(-c5ccoc5)cn34)ccc2n1` [compound 245, 6-[6-(3-furyl)-[1,2,4]triazolo[4,3-a]pyridin-3-yl]quinoxaline], for which the Emax is 50 to 100%.
